Assay results from patent US10624992B2, “Human airway stem cells in lung epithelial engineering” (The General Hospital Corporation, priority 2016, dated 2020).

Tests used:
[1] = tested on: primary human lung epithelial basal cells; assay: Effect of ROCK inhibitor on cell phenotype and senescence during cell isolation and passage; type: cell-based
Experimental: FIGS. 8A-C: Effect of ROCK Inhibitor on Cell Phenotype and Senescence. […] Donor lung peripheral tissue (1-inch cubed) was washed in αMEM and then chopped into ˜¼ inch pieces with scissors and digested in 0.1 mg/ml DNAse (Sigma) and 1.4 mg/ml Pronase (Roche, 11459643001) for 24 hours/4° C. (52). Digested tissue was plated onto uncoated culture flasks in SAGM for 30 minutes/37° C., then non-adherent cells transferred and adhered to human Collagen-IV (Sigma-Aldrich C7521)-coated flasks. Epithelial cells were maintained in SAGM (Lonza, CC-3118) and passaged at 80% confluent (approximately 3-5 days/passage). For cells treated with γ-secretase inhibitors (1) 3-Isobutyl-1-methylxanthine (100 μg/ml IBMX, Sigma-Aldrich, 15879) and (2) N-[(3,5-Difluorophenyl)acetyl]-L-alanyl-2-phenyl]glycine-1,1-dimethylethyl ester (50 μg/ml DAPT, Selleck Chemicals, S2215), media was changed daily. Primary endothelial cells were isolated from the large vessels of donor lungs using the same digestion protocol. The endothelial population was sorted for CD31^+ purity by flow cytometry, and maintained and expanded on Gelatin coated flasks in EGM2 (Lonza, CC-3162) until utilized for human lung recellularization (See FIGS. 7A-B). […] Quantitative gene expression was analyzed using Taqman probes and the OneStep Plus system (Applied Biosystems). […]

[2] = tested on: primary epithelial basal cells (BESCs); assay: Notch inhibitor treatment of primary epithelial basal cells in vitro (qPCR, immunofluorescence); type: cell-based, human; details: 5 days in vitro, compared to No Treatment
Experimental: Donor lung peripheral tissue (1-inch cubed) was washed in αMEM and then chopped into ˜¼ inch pieces with scissors and digested in 0.1 mg/ml DNAse (Sigma) and 1.4 mg/ml Pronase (Roche, 11459643001) for 24 hours/4° C. (52). Digested tissue was plated onto uncoated culture flasks in SAGM for 30 minutes/37° C., then non-adherent cells transferred and adhered to human Collagen-IV (Sigma-Aldrich C7521)-coated flasks. Epithelial cells were maintained in SAGM (Lonza, CC-3118) and passaged at 80% confluent (approximately 3-5 days/passage). For cells treated with γ-secretase inhibitors (1) 3-Isobutyl-1-methylxanthine (100 μg/ml IBMX, Sigma-Aldrich, 15879) and (2) N-[(3,5-Difluorophenyl)acetyl]-L-alanyl-2-phenyl]glycine-1,1-dimethylethyl ester (50 μg/ml DAPT, Selleck Chemicals, S2215), media was changed daily. Primary endothelial cells were isolated from the large vessels of donor lungs using the same digestion protocol. The endothelial population was sorted for CD31^+ purity by flow cytometry, and maintained and expanded on Gelatin coated flasks in EGM2 (Lonza, CC-3162) until utilized for human lung recellularization (See FIGS. 7A-B). RNA was isolated using the RNEasy Plus (Qiagen). cDNA was transcribed using the Superscript III kit (Invitrogen). Quantitative gene expression was analyzed using Taqman probes and the OneStep Plus system (Applied Biosystems). […]

BESCs [3] = assay: In vitro culture of BESCs on Collagen IV plates supplemented with TN-C and/or FBN-2; type: cell-based, human; details: 7 d culture, compared to uncoated or Collagen IV coated wells
Experimental: 24-well plates were pre-coated with human Collagen IV (10 μg/ml) Sigma-Aldrich C7521) for 2 h at 37° C. After removal of the collagen solution, TN-C (10 μg/ml, R&D 3358-TC-050) or the recombinant N-terminal half (FBN-2-N) or C-terminal half (FBN-2-C) of human FBN-2 (10 μg/ml) (Lin et al., The Journal of biological chemistry. 2002; 277(52):50795-804) were then added to select wells, and incubated for 2 h at 37° C. A total of 1×10^5 BESC were subsequently plated to each well and cultured for 7 d in SAGM.
(§1) mRNA was isolated (Qiagen RNeasy Plus Kit) and transcribed to cDNA (Invitrogen SuperScript III). Gene expression was analyzed using Taqman probes and the OneStep Plus system (Applied Biosystems). Each biological sample was analyzed in experimental replicate (n=2 repeated wells of the qPCR reaction) and the Ct value of each replicate was averaged and handed as n=1 unique biologic sample. Expression for each sample was normalized to β-Actin (ACTA1) gene expression (ΔCt) and relative to cadaveric peripheral lung tissue control samples (ΔΔCt), with fold change calculated by 2-ΔΔCt (Livak and Schmittgen, Methods. 2001; 25(4):402-8). A total of n=3 unique biological samples were analyzed for each reported experiment.
After de-paraffinization and rehydration, 5 μm tissue section were permeabilized with 0.1% Triton X-100 for intracellular antigens, when appropriate. […]

BESCs [4] = assay: In vitro migration assay on protein coatings; type: cell-based, human; details: over 3 h, compared to Collagen IV coating alone, p<0.001; mixture of N- and C-terminal halves of FBN-2
Experimental: For migration assay, after coating as above, a small inset (MIDI) was added to the wells prior to cell seeding. A total of 1×10^4 cells were seeded within the insert and incubated for 12 h, before the insert was removed. Bright-field images were taken every 30 min for 180 min to track cell migration. Images were analyzed with ImageJ software (Schneider et al., Nature methods. 2012; 9(7):671-5) to quantify the change in cell-free area.

[5] = tested on: BESCs on decellularized rat lung scaffolds; assay: Ex vivo rat lung recellularization on scaffolds pre-coated with TN-C and/or FBN-2; type: cell-based, human; details: Day 3 and 7
Experimental: Decellularized lung scaffolds were pre-coated with (A) PBS control, (B) TN-C, 10 μg/ml, (C) FBN-2, (10 μg/ml each of N- and C-terminal fragment of FBN-2), or (D) TN-C+FBN-2 (10 μg/ml each of TN-C and of N- and C-terminal fragment of FBN-2), by delivery through the trachea. Solution was recycled to the trachea for 90 min at 37° C. A total of 20×10^6 primary lung epithelial cells (passage 3) were then delivered to the scaffold airways in 20 ml of SAGM by gravity. Constant media perfusion of SAGM through the pulmonary artery was maintained at 4 ml/min (pressure 15-20 mmHg) and changed daily. […]
as §1, with “experiment. […]” for “experiment.”

[6] = tested on: BESCs on acellular rat lung scaffolds; assay: Rat lung scaffold recellularization and ex vivo culture with Notch inhibitors; type: cell-based, human; details: DAPT 50 nM in vitro 5 days, then 5 days ex vivo on rat lung scaffold without inhibitors
Experimental: Primary lung epithelial cells (passage 3) were harvested from 2-D culture, counted, and re-introduced to the scaffold airways in solution (20 ml) by gravity. Continuous media perfusion through the pulmonary artery was maintained at 4 ml/min by peristaltic pump and changed daily.
RNA was isolated using the RNEasy Plus (Qiagen). cDNA was transcribed using the Superscript III kit (Invitrogen). Quantitative gene expression was analyzed using Taqman probes and the OneStep Plus system (Applied Biosystems). Expression was normalized to β-Actin expression and relative to cadaveric lung tissue control samples.
Primary Antibodies (1:100): p63 (Santa Cruz, sc-25268), Krt5 (Abcam, ab24647), E-cadherin (BD, 610181), Surfactant Protein-B (Millipore, AB3430), pro-Surfactant Protein-C (Abcam, ab3786), Aquaporin-5 (Abcam, ab92320), Acetylated α-Tubulin (Abcam, ab24610), α2β1 integrin (Abcam, ab24697), α3β1 integrin (Abcam, ab24696), and CD31 (Daki, M082301-2). Secondary antibodies (1:400): Alexafluor 488 and 594 (Life Technologies).

C[C@@H](N)[C@H]1CC[C@H](C(=O)Nc2ccncc2)CC1 [Y-27632] was tested, and the “basal cell population, proliferation (Ki67, PCNA) and senescence (CDKN2A)” value ([1]; during cell isolation and passage) was “did not enhance the basal cell population, or alter proliferation (Ki67, PCNA) or senescence” and the “gene expression, treated vs untreated” value ([1]; passage 1 and passage 4, n=3 cell lines, t-test) was “No significant differences”.

For CC(C)Cn1c(=O)n(C)c(=O)c2[nH]cnc21 [IBMX, 3-Isobutyl-1-methylxanthine], the “SP-B and SP-C gene expression (type II pneumocyte markers)” value [2] was “ineffective alone”.

“TN-C: Tenascin-C glycoprotein (R&D 3358-TC-050), used as coating at 10 μg/ml” was tested, and the “proliferation (gene expression)” value (BESCs [3]) was “significantly greater proliferation”, the “senescence (gene expression)” value (BESCs [3]) was “less senescence” and the “BESC migration rate (change in cell-free area)” value (BESCs [4]) was “Significantly higher rates of BESC migration”. The “Ki67 expression of Krt5+ BESCs (immunofluorescence)” value [5] was “significant increase in proliferation”.

For C[C@H](NC(=O)Cc1cc(F)cc(F)c1)C(=O)NC(C(=O)OC(C)(C)C)c1ccccc1 (stereo partly drawn) [DAPT], the “SP-B and SP-C gene expression (type II pneumocyte markers)” value [2] was “ineffective alone” and the “distal type2-like fate after in vitro pre-treatment and inhibitor withdrawal” value [6] was “maintained a distal type2-like fate”.
